In PubChem BioAssay (NCI):
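Five concentrations, 48 hours, 96-well plates. TGI: concentration producing complete growth inhibition.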

Legend:
Assay in all cases: NCI anticancer screen, dose series, 48 h
786-0 renal = system: 786-0 renal
A498 renal = system: A498 renal
ACHN renal = system: ACHN renal
BT-549 breast = system: BT-549 breast
CAKI-1 renal = system: CAKI-1 renal
CCRF-CEM leukemia = system: CCRF-CEM leukemia
COLO 205 colon = system: COLO 205 colon
DU-145 prostate = system: DU-145 prostate
EKVX NSCLC = system: EKVX NSCLC
HCT-116 colon = system: HCT-116 colon
HCT-15 colon = system: HCT-15 colon
HL-60(TB) leukemia = system: HL-60(TB) leukemia
HOP-62 NSCLC = system: HOP-62 NSCLC
HS 578T breast = system: HS 578T breast
HT29 colon = system: HT29 colon
IGROV1 ovarian = system: IGROV1 ovarian
K-562 leukemia = system: K-562 leukemia
KM12 colon = system: KM12 colon
LOX IMVI melanoma = system: LOX IMVI melanoma
M14 melanoma = system: M14 melanoma
MALME-3M melanoma = system: MALME-3M melanoma
MCF7 breast = system: MCF7 breast
MDA-MB-231 breast = system: MDA-MB-231 breast
MDA-MB-435 = system: MDA-MB-435
MDA-N = system: MDA-N
MOLT-4 leukemia = system: MOLT-4 leukemia
NCI-H226 lung = system: NCI-H226 lung
NCI-H23 lung = system: NCI-H23 lung
NCI/ADR-RES ovarian = system: NCI/ADR-RES ovarian
OVCAR-3 ovarian = system: OVCAR-3 ovarian
OVCAR-5 ovarian = system: OVCAR-5 ovarian
OVCAR-8 ovarian = system: OVCAR-8 ovarian
PC-3 prostate = system: PC-3 prostate
RPMI-8226 leukemia = system: RPMI-8226 leukemia
RXF 393 renal = system: RXF 393 renal
SF-268 CNS = system: SF-268 CNS
SF-295 CNS = system: SF-295 CNS
SF-539 CNS = system: SF-539 CNS
SK-MEL-2 melanoma = system: SK-MEL-2 melanoma
SK-MEL-28 melanoma = system: SK-MEL-28 melanoma
SK-MEL-5 melanoma = system: SK-MEL-5 melanoma
SK-OV-3 ovarian = system: SK-OV-3 ovarian
SN12C renal = system: SN12C renal
SNB-19 CNS = system: SNB-19 CNS
SNB-75 CNS = system: SNB-75 CNS
SW-620 colon = system: SW-620 colon
T-47D breast = system: T-47D breast
TK-10 renal = system: TK-10 renal
U251 CNS = system: U251 CNS
UACC-257 melanoma = system: UACC-257 melanoma
UACC-62 melanoma = system: UACC-62 melanoma
UO-31 renal = system: UO-31 renal
A549 NSCLC = system: A549 NSCLC
HCC-2998 colon = system: HCC-2998 colon
HOP-92 NSCLC = system: HOP-92 NSCLC
NCI-H460 lung = system: NCI-H460 lung
NCI-H522 lung = system: NCI-H522 lung
OVCAR-4 ovarian = system: OVCAR-4 ovarian

Measured: TGI

CC1(C)SC2C(NC(=O)C(C(=O)O)c3ccccc3)C(=O)N2C1C(=O)O (configuration not stated)
not listed: A549 NSCLC | HCC-2998 colon | HOP-92 NSCLC | NCI-H460 lung | NCI-H522 lung | OVCAR-4 ovarian
> 100 µM: all other assays above

CCC12CCCN3CCc4c(n(c5ccccc45)C(O)(C(=O)OC)C1)C32 (configuration not stated)
not listed: HOP-62 NSCLC | K-562 leukemia | RXF 393 renal
> 100 µM: all other assays above
